Measurements reported in ChEMBL document CHEMBL5136974, “VHL-based PROTACs as potential therapeutic agents: Recent progress and perspectives” (Eur J Med Chem, 2022).

Columns and labels:
[1] = molecular target: T1, von Hippel-Lindau disease tumor suppressor/Androgen receptor (Homo sapiens, UniProt P10275+P40337); experiment: Protac activity at VHL/full length androgen receptor (unknown origin) assessed as degradation of androgen receptor
[2] = molecular target: T1, von Hippel-Lindau disease tumor suppressor/Androgen receptor; experiment: Protac activity at VHL/androgen receptor (unknown origin) assessed as degradation of androgen receptor; type: protein assay
[3] = molecular target: T2, von Hippel-Lindau disease tumor suppressor/Estrogen receptor (Homo sapiens, UniProt P03372+P40337); experiment: Protac activity at VHL/ER (unknown origin) assessed as degradation of ER relative to control
Target sequence in this assay (P03372 whole entry, looked up): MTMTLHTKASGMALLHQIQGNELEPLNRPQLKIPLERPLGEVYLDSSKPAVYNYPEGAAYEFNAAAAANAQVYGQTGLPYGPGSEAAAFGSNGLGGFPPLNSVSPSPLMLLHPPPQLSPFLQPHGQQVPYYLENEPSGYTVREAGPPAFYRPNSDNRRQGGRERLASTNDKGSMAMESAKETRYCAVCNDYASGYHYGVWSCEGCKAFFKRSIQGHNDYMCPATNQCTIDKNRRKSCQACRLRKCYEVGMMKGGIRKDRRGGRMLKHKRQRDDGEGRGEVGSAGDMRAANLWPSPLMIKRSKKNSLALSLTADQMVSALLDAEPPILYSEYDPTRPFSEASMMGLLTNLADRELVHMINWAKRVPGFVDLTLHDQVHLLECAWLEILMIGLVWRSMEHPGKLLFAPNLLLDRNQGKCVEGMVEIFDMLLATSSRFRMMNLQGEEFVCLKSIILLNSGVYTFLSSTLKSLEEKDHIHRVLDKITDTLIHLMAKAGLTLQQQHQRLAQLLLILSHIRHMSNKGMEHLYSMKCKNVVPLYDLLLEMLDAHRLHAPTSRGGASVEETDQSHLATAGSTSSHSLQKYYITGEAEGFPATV
Target sequence in this assay (P40337 whole entry, looked up): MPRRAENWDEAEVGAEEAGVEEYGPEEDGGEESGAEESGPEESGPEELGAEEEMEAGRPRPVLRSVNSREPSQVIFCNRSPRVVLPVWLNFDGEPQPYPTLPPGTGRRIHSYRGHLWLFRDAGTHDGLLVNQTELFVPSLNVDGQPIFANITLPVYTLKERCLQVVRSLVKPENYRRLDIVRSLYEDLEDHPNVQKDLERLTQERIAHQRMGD

[4] = tested on: MCF7; experiment: Antiproliferative activity against human MCF7 cells; type: functional, cell-based
[5] = molecular target: T2, von Hippel-Lindau disease tumor suppressor/Estrogen receptor; experiment: Protac activity at VHL/ER (unknown origin) assessed as degradation of ER
Target sequence in this assay (P03372 whole entry): as the sequence (P03372 whole entry, looked up) above
Target sequence in this assay (P40337 whole entry): as the sequence (P40337 whole entry, looked up) above

[6] = tested on: MCF7; experiment: Antiproliferative activity against human MCF7 cells relative to control; type: functional
[7] = molecular target: von Hippel-Lindau disease tumor suppressor/GTPase KRas (Homo sapiens, UniProt P01116+P40337, G12C); experiment: Protac activity at VHL/KRAS G12C mutant (unknown origin); type: protein assay
[8] = molecular target: Dihydroorotate dehydrogenase (quinone), mitochondrial (Homo sapiens, UniProt Q02127); experiment: Inhibition of DHODH (unknown origin)
[9] = molecular target: T3, von Hippel-Lindau disease tumor suppressor/Serine/threonine-protein kinase Sgk3 (Homo sapiens) (UniProt Q96BR1+P40337); experiment: Protac activity at VHL/SGK3 in human HEK293 cells at […] measured within 8 hrs relative to control; type: cell-based
[10] = molecular target: T3, von Hippel-Lindau disease tumor suppressor/Serine/threonine-protein kinase Sgk3 (Homo sapiens); experiment: Protac activity at VHL/SGK3 in human HEK293 cells at […] measured within 2 hrs relative to control; type: cell-based
[11] = tested on: SK-BR-3; experiment: Antiproliferative activity against human SK-BR-3 cells; type: functional, cell-based
[12] = molecular target: T4, von Hippel-Lindau disease tumor suppressor/Epidermal growth factor receptor (Homo sapiens, UniProt P00533+P40337); experiment: Protac activity against VHL/EGFR in human OVCAR-8 cells assessed as degradation of EGFR; type: cell-based
[13] = molecular target: T4, von Hippel-Lindau disease tumor suppressor/Epidermal growth factor receptor; experiment: Protac activity against VHL/EGFR in human OVCAR-8 cells assessed as degradation of EGFR relative to control; type: cell-based
[14] = molecular target: ALK tyrosine kinase receptor (Homo sapiens, UniProt Q9UM73); experiment: Inhibition of ALK (unknown origin) incubated for 1 hr by HTRF assay
[15] = molecular target: NPM/ALK (Nucleophosmin/ALK tyrosine kinase receptor) (Homo sapiens) (UniProt Q9UM73+P06748); experiment: Inhibition of NPM-ALK in human SU-DHL-1 cells at […] relative to control; type: cell-based
[16] = tested on: SK-MEL-28; experiment: Antiproliferative activity against human SK-MEL-28 cells; type: functional, cell-based
[17] = tested on: HT-29; experiment: Antiproliferative activity against human HT-29 cells; type: functional, cell-based
[18] = tested on: MOLM-14; experiment: Antiproliferative activity against human MOLM-14 cells; type: functional, cell-based
[19] = tested on: MV4-11; experiment: Antiproliferative activity against human MV4-11 cells; type: functional, cell-based
[20] = tested on: von Hippel-Lindau disease tumor suppressor/Epidermal growth factor receptor (Homo sapiens), P00533+P40337 [UNDEFINED MUTATION]; experiment: Protac activity against VHL/EGFR deletion 19 mutant in human HCC827 cells relative to control; type: cell-based
[21] = molecular target: T4, von Hippel-Lindau disease tumor suppressor/Epidermal growth factor receptor; experiment: Protac activity against VHL/EGFR deletion 19 mutant in human HCC827 cells; type: cell-based
[22] = molecular target: von Hippel-Lindau disease tumor suppressor/Epidermal growth factor receptor (Homo sapiens, UniProt P00533+P40337, L858R); experiment: Protac activity against VHL/EGFR L858R mutant in human […] cells; type: cell-based
[23] = tested on: von Hippel-Lindau disease tumor suppressor/Epidermal growth factor receptor (Homo sapiens), P00533+P40337 [L858R]; experiment: Protac activity against VHL/EGFR L858R mutant in human […] cells relative to control; type: cell-based
[24] = tested on: von Hippel-Lindau disease tumor suppressor/Epidermal growth factor receptor (Homo sapiens), P00533+P40337 [L858R,T790M]; experiment: Protac activity against VHL/geftinib-resistant EGFR L858R/T790M double mutant in human H1975 cells relative to control; type: cell-based; conditions: NCI-H1975
[25] = molecular target: Serine/threonine-protein kinase B-raf (Homo sapiens) (UniProt P15056); experiment: Inhibition of BRAF mutant (unknown origin) relative to control
[26] = Inhibition of BRAF mutant (unknown origin); design: species or system Homo sapiens
[27] = molecular target: von Hippel-Lindau disease tumor suppressor/Cyclin-dependent kinase 4 (Homo sapiens, UniProt P11802+P40337); experiment: Protac activity at VHL/CDK4 in human MM1.S cells assessed as degradation of CDK4 measured after 16 hrs; type: cell-based
[28] = molecular target: T5, von Hippel-Lindau disease tumor suppressor/Cyclin-dependent kinase 6 (Homo sapiens, UniProt Q00534+P40337); experiment: Protac activity at VHL/CDK6 in human MM1.S cells assessed as degradation of CDK6 measured after 16 hrs; type: cell-based
[29] = molecular target: T5, von Hippel-Lindau disease tumor suppressor/Cyclin-dependent kinase 6; experiment: Protac activity at VHL/CDK6 in human MM1.S cells assessed as degradation of CDK6 at 100 nM relative to control; type: cell-based
Target sequence in this assay (P40337 whole entry, looked up): as above
Target sequence in this assay (Q00534 whole entry, looked up): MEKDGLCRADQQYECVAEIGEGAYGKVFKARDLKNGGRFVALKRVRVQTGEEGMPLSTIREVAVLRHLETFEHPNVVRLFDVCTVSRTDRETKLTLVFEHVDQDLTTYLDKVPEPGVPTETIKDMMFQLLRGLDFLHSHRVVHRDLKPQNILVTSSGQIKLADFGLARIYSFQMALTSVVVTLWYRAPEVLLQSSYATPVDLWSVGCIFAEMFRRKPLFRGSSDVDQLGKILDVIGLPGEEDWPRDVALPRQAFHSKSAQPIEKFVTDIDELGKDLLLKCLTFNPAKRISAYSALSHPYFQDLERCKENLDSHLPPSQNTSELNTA

[30] = molecular target: von Hippel-Lindau disease tumor suppressor/Oxysterols receptor LXR-beta (Homo sapiens, UniProt P40337+P55055); experiment: Protac activity at VHL/LXR (unknown origin) by TR-FRET assay
[31] = molecular target: Polycomb protein EED (Homo sapiens, UniProt O75530); experiment: Binding affinity to EED (unknown origin) assessed as dissociation constant
[32] = Inhibition of PRC2 (unknown origin); design: species or system Homo sapiens
[33] = molecular target: T6, Receptor-interacting serine/threonine-protein kinase 2 (Homo sapiens, UniProt O43353); experiment: Degradation of RIPK2 (unknown origin)
[34] = molecular target: T6, Receptor-interacting serine/threonine-protein kinase 2; experiment: Degradation of RIPK2 (unknown origin) at more than 10 nM relative to control
[35] = molecular target: von Hippel-Lindau disease tumor suppressor/3-hydroxy-3-methylglutaryl-coenzyme A reductase (Homo sapiens, UniProt P04035+P40337); experiment: Protac activity at VHL/HMGCR in Insig-silenced human HepG2 cells; type: cell-based
[36] = molecular target: von Hippel-Lindau disease tumor suppressor/Focal adhesion kinase 1 (Homo sapiens) (UniProt Q05397+P40337); experiment: Protac activity at VHL/FAK in serum-free treated human PC-3 cells assessed as degradation of FAK measured after 24 hrs relative to control; type: cell-based

T3 sequence (P40337 whole entry, looked up): as the sequence (P40337 whole entry, looked up) above
T3 sequence (Q96BR1 whole entry, looked up): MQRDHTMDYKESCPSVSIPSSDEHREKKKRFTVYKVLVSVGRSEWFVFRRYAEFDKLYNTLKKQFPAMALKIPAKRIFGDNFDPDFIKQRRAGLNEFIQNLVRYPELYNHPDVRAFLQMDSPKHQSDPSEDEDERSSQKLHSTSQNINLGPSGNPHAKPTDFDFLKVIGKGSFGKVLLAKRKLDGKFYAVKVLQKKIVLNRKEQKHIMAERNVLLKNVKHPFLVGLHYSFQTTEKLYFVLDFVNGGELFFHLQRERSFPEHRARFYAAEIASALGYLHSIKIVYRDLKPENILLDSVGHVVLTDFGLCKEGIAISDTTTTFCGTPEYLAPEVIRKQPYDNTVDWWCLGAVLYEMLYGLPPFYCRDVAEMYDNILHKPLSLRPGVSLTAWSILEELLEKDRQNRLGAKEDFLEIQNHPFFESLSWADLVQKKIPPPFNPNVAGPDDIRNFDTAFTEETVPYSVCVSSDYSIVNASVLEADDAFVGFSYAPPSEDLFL
Dihydroorotate dehydrogenase (quinone), mitochondrial, sequence (Q02127 whole entry): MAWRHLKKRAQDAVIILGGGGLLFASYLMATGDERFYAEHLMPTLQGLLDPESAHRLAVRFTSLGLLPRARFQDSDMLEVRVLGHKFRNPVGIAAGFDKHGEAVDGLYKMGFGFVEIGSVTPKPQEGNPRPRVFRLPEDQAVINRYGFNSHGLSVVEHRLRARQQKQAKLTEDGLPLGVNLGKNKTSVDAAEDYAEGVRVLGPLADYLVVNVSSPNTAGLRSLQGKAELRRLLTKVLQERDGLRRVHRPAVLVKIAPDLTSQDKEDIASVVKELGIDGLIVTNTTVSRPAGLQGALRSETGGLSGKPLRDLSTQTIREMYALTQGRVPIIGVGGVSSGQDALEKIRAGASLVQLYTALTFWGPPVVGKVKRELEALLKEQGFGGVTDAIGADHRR
Polycomb protein EED, sequence (O75530 whole entry): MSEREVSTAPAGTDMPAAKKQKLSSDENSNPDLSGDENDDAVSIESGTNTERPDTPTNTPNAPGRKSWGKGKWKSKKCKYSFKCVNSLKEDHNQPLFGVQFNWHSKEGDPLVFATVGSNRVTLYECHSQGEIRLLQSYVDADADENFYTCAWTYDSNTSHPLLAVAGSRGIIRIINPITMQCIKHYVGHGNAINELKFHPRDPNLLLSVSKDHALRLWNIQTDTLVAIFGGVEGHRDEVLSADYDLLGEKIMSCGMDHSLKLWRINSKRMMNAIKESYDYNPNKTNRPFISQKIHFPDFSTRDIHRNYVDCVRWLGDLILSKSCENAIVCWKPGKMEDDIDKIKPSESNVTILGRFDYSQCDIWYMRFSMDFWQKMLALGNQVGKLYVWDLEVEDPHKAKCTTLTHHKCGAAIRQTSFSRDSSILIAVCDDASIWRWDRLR
von Hippel-Lindau disease tumor suppressor/Oxysterols receptor LXR-beta, sequence (P55055 whole entry): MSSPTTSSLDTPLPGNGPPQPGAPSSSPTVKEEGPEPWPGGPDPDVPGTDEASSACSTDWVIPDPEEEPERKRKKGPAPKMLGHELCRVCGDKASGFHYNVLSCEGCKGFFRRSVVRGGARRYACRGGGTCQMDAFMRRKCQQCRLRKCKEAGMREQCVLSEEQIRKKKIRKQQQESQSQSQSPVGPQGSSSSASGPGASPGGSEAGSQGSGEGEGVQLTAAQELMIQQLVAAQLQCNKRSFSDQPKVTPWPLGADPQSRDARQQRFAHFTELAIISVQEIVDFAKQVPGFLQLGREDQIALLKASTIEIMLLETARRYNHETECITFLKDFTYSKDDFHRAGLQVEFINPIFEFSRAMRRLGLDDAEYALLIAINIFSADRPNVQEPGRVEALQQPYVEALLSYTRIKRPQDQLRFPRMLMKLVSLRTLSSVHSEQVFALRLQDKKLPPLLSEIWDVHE
von Hippel-Lindau disease tumor suppressor/Oxysterols receptor LXR-beta, sequence (P40337 whole entry): as the sequence (P40337 whole entry, looked up) above
T6 sequence (O43353 whole entry): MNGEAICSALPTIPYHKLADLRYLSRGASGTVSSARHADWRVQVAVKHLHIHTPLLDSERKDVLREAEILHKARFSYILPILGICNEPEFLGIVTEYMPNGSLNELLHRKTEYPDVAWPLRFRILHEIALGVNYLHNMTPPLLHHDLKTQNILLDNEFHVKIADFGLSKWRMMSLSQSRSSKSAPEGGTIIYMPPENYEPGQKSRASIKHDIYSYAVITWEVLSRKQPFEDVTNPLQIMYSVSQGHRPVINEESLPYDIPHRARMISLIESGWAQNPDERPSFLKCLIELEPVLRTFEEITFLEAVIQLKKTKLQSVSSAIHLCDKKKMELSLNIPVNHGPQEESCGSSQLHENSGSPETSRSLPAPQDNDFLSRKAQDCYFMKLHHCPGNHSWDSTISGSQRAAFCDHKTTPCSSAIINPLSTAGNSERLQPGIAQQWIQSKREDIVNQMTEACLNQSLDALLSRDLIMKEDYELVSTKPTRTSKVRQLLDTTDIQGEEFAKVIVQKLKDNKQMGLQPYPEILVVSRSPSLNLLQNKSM

## Cc1ncsc1-c1ccc([C@H](C)NC(=O)[C@@H]2C[C@@H](O)CN2C(=O)[C@@H](NC(=O)CCCCCNC(=O)COc2ccccc2-c2csc(N3CCOCC3)n2)C(C)(C)C)cc1
[1]
  DC50: 2000 nM
[2]
  DC50: 370 nM

## Cc1ncsc1-c1ccc([C@H](C)NC(=O)[C@@H]2C[C@@H](O)CN2C(=O)[C@@H](NC(=O)CCCCOc2ccc(CCNC(=O)c3ccc(C(=O)c4c(-c5ccc(O)cc5)sc5cc(O)ccc45)cc3)cc2)C(C)(C)C)cc1
[3]
  Emax: 98%
[4]
  IC50: 13.2 nM
[5]
  DC50: 1.1 nM
[6]
  Imax: 69%

## C=C(F)C(=O)N1CCN(c2nc(OC[C@@H]3CCCN3CCCOCCC(=O)N[C@H](C(=O)N3C[C@H](O)C[C@H]3C(=O)NCc3ccc(-c4scnc4C)cc3)C(C)(C)C)nc3c2CCN(c2cccc4cccc(Cl)c24)C3)C[C@@H]1CC#N
[7]
  DC50: 250 nM

## Cc1ncsc1-c1ccc(CNC(=O)[C@@H]2C[C@@H](O)CN2C(=O)[C@@H](NC(=O)OCCOCCOCCOc2ccc(-c3ccc(-c4nc5ccc(F)cc5c(C(=O)O)c4C)cc3)cc2)C(C)(C)C)cc1
[8]
  IC50: 93 nM

## Cc1ccc(F)c(S(=O)(=O)Nc2ccc(-c3nc(OC[C@H]4CN(CCCCCCOCCOCCOCC(=O)N[C@H](C(=O)N5C[C@H](O)C[C@H]5C(=O)NCc5ccc(-c6scnc6C)cc5)C(C)(C)C)CCO4)c4cn[nH]c4n3)cc2)c1
[9]
  Activity: 80%
[10]
  Activity: 50%

## Cc1ncsc1-c1ccc(CNC(=O)[C@@H]2C[C@@H](O)CN2C(=O)[C@@H](NC(=O)COCCOCCOc2ccc(-c3ccc4ncnc(Nc5ccc(OCc6cccc(F)c6)c(Cl)c5)c4c3)cc2)C(C)(C)C)cc1
[11]
  IC50: 102 nM
[12]
  DC50: 39.2 nM
[13]
  Emax: 97.6%

## Cc1cc(Nc2ncc(Cl)c(Nc3ccccc3S(=O)(=O)C(C)C)n2)c(OC(C)C)cc1C1CCN(C(=O)CCCC(=O)N[C@H](C(=O)N2C[C@H](O)C[C@H]2C(=O)NCc2ccc(-c3scnc3C)cc2)C(C)(C)C)CC1
[14]
  IC50: 7 nM
[15]
  inhibition: 90%

## Cc1ncsc1-c1ccc([C@H](C)NC(=O)[C@@H]2C[C@@H](OC(=O)CCCCn3cc(CNC(=O)CC[C@H](NC(=O)c4ccc(NCc5cnc6nc(N)[nH]c(=O)c6n5)cc4)C(=O)O)nn3)CN2C(=O)[C@@H](NC(=O)CCCCCCCCCCNCCCONC(=O)c2ccc(F)c(F)c2Nc2ccc(I)cc2F)C(C)(C)C)cc1
[16]
  IC50: 390 nM
[17]
  IC50: 436 nM

## Cc1ncsc1-c1ccc([C@H](C)NC(=O)[C@@H]2C[C@@H](O)CN2C(=O)[C@@H](NC(=O)CCCCOc2ccc(/C=N/NC(=O)c3ccc(C(=O)c4c(-c5ccc(O)cc5)sc5cc(O)ccc45)cc3)cc2)C(C)(C)C)cc1 (stereo in doubt)
[3]
  Emax: 95%
[5]
  DC50: 10 nM

## Cc1ncsc1-c1ccc(CNC(=O)[C@@H]2C[C@@H](O)CN2C(=O)[C@@H](NC(=O)CCOCCOCCOc2ccc3c(c2)sc2nc(-c4ccc(NC(=O)Nc5cc(C(C)(C)C)on5)cc4)cn23)C(C)(C)C)cc1
[18]
  IC50: 0.6 nM
[19]
  IC50: 0.6 nM

## COc1cc2ncnc(Nc3ccc(F)c(Cl)c3)c2cc1OCCCCCOCCOCCC(=O)N[C@H](C(=O)N1C[C@H](O)C[C@H]1C(=O)NCc1ccc(-c2scnc2C)cc1)C(C)(C)C
[20]
  Emax: 98.9%
[21]
  DC50: 11.7 nM
[22]
  DC50: 22.3 nM
[23]
  Emax: 96.6%

## Cc1ncsc1-c1ccc(CNC(=O)[C@@H]2C[C@@H](O)CN2C(=O)[C@@H](NC(=O)CCCCCOCCCCOCCCCOc2cc3ncnc(Nc4ccc(F)c(Cl)c4)c3cc2NC(=O)/C=C/CN(C)C)C(C)(C)C)cc1
[24]
  Emax: 79.1%

## CCCS(=O)(=O)Nc1ccc(F)c(C(=O)c2c[nH]c3ncc(-c4ccc(N5CCN(CC(=O)N[C@H](C(=O)N6C[C@H](O)C[C@H]6C(=O)NCc6ccc(-c7scnc7C)cc6)C(C)(C)C)CC5)cc4)cc23)c1F
[25]
  Emax: > 95%
[26]
  IC50: 6.8 nM

## CC(=O)c1c(C)c2cnc(Nc3ccc(N4CCN(CCOCCOCCOc5cc(-c6scnc6C)ccc5CNC(=O)[C@@H]5C[C@@H](O)CN5C(=O)[C@@H](NC(=O)C5(F)CC5)C(C)(C)C)CC4)cn3)nc2n(C2CCCC2)c1=O
[27]
  DC50: 20 nM
[28]
  DC50: 5.1 nM
[29]
  Activity: > 95%

## O=C(O)Cc1cccc(OCCCN(Cc2cccc(C(F)(F)F)c2Cl)CC(c2ccccc2)c2ccccc2)c1
[30]
  EC50: 20 nM

## Cc1nc(CCC(=O)NCCOc2ccc(OCC(=O)N[C@H](C(=O)N3C[C@H](O)C[C@H]3C(=O)NCc3ccc(-c4scnc4C)cc3)C(C)(C)C)cc2)ccc1-c1cnc(NCc2c(F)ccc3c2CCO3)n2cnnc12
[31]
  Kd: 1 nM
[32]
  pIC50: 8.1

## Cc1ncsc1-c1ccc(CNC(=O)[C@@H]2C[C@@H](O)CN2C(=O)[C@@H](NC(=O)COCCOCCOCCOCCOc2cc3nccc(Nc4ccc5scnc5c4)c3cc2S(=O)(=O)C(C)(C)C)C(C)(C)C)cc1
[33]
  DC50: 1.4 nM
[34]
  Emax: > 95%

## Cc1ncsc1-c1ccc(CNC(=O)[C@@H]2C[C@@H](O)CN2C(=O)[C@@H](NC(=O)CCCCCCCCCCNC(=O)O[C@H]2C[C@@H](C)C=C3C=C[C@H](C)[C@H](CC[C@@H](O)C[C@@H](O)CC(=O)O)[C@H]32)C(C)(C)C)cc1
[35]
  DC50: 120 nM

## Cc1nc(CCC(=O)NCCCCC(=O)N[C@H](C(=O)N2C[C@H](O)C[C@H]2C(=O)NCc2ccc(-c3scnc3C)cc2)C(C)(C)C)ccc1-c1cnc(NCc2c(F)ccc3c2CCO3)n2cnnc12
[31]
  Kd: 1 nM
[32]
  pIC50: 8.1

## Cc1ncsc1-c1ccc(CNC(=O)[C@@H]2C[C@@H](O)CN2C(=O)[C@@H](NC(=O)CCOCCOc2ccc(Nc3ncc(C(F)(F)F)c(NCc4cccc(N(C)S(C)(=O)=O)c4)n3)cc2)C(C)(C)C)cc1
[36]
  Emax: 99%

## COC(=O)c1c(C)c(-c2ccc(-c3ccc(OCCOCCOCCOC(=O)N[C@H](C(=O)N4C[C@H](O)C[C@H]4C(=O)NCc4ccc(-c5scnc5C)cc4)C(C)(C)C)cc3)cc2)nc2ccc(F)cc12
[8]
  IC50: > 200000 nM

## Cc1ncsc1-c1ccc(CNC(=O)[C@@H]2C[C@@H](O)CN2C(=O)[C@@H](NC(=O)COCCOCCOCCOCCOCCNC(=O)Cc2cccc(OCCCN(Cc3cccc(C(F)(F)F)c3Cl)CC(c3ccccc3)c3ccccc3)c2)C(C)(C)C)cc1
[30]
  EC50: 31 nM
